Measured values from patent US12552783B2, “Modulators of proteolysis and associated methods of use” (Arvinas Operations, Inc., priority 2018, dated 2026).

Biological target: KRas (Homo sapiens, UniProt P01116, G12C)
Test: KRas degradation in NCI-H2030 cells by Western blot, normalized to GAPDH (data of Table 14)
Format: cell-based
Set-up: host or cells: NCI-H2030
Details: for Dmax: NCI-H2030
In short: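 Readout: GAPDH-normalized KRas immunoblot signal, expressed as percent degradation versus 0.1% DMSO vehicle. Treatment: 0.3, 1, 3 μM after 24 h starvation; 24 h (VHL-based) or 72 h (others).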

Structure (SMILES): C=CC(=O)N1CCN(c2nc(O[C@H](C)CN3CCC(OCCOCCOCCOc4ccc5c(c4)C(=O)N(C4CCC(=O)NC4=O)C5=O)CC3)nc3c2CCN(c2cc(O)cc4ccccc24)C3)CC1 (stereo partly drawn) [compound 418, 5-(2-(2-(2-((1-((R)-2-((4-(4-acryloylpiperazin-1-yl)-7-(3-hydroxynaphthalen-1-yl)-5,6,7,8-tetrahydropyrido[3,4-d]pyrimidin-2-yl)oxy)propyl)piperidin-4-yl)oxy)ethoxy)ethoxy)ethoxy)-2-(2,6-dioxopiperidin-3-yl)isoindoline-1,3-dione]
- Percent Degradation at Indicated Concentration (μM) (H2030 cells, 0.3 μM): C (Percent Degradation: C ≤ 35)
- Percent Degradation at Indicated Concentration (μM) (H2030 cells, 1 μM): C (Percent Degradation: C ≤ 35)
- Percent Degradation at Indicated Concentration (μM) (H2030 cells, 3 μM): C (Percent Degradation: C ≤ 35)

Structure (SMILES): C=CC(=O)N1CCN(c2nc(O[C@H](C)CN3CCC(OCCOCCOCCOCCOc4ccc5c(c4)C(=O)N(C4CCC(=O)NC4=O)C5=O)CC3)nc3c2CCN(c2cc(O)cc4ccccc24)C3)CC1 (stereo partly drawn) [compound 419, 5-(2-(2-(2-(2-((1-((R)-2-((4-(4-acryloylpiperazin-1-yl)-7-(3-hydroxynaphthalen-1-yl)-5,6,7,8-tetrahydropyrido[3,4-d]pyrimidin-2-yl)oxy)propyl)piperidin-4-yl)oxy)ethoxy)ethoxy)ethoxy)ethoxy)-2-(2,6-dioxopiperidin-3-yl)isoindoline-1,3-dione]
- Percent Degradation at Indicated Concentration (μM) (H2030 cells, 0.3 μM): C (Percent Degradation: C ≤ 35)
- Percent Degradation at Indicated Concentration (μM) (H2030 cells, 1 μM): C (Percent Degradation: C ≤ 35)
- Percent Degradation at Indicated Concentration (μM) (H2030 cells, 3 μM): C (Percent Degradation: C ≤ 35)

Structure (SMILES): C=CC(=O)N1CCN(c2nc(O[C@H](C)CN3CCC(OCCOCCOc4ccc5c(c4)CN(C4CCC(=O)NC4=O)C5=O)CC3)nc3c2CCN(c2cc(O)cc4ccccc24)C3)CC1 (stereo partly drawn) [compound 422, 3-(5-(2-(2-((1-((R)-2-((4-(4-acryloylpiperazin-1-yl)-7-(3-hydroxynaphthalen-1-yl)-5,6,7 ,8-tetrahydropyrido[3,4-d]pyrimidin-2-yl)oxy)propyl)piperidin-4-yl)oxy)ethoxy)ethoxy)-1-oxoisoindolin-2-yl)piperidine-2,6-dione]
- Percent Degradation at Indicated Concentration (μM) (H2030 cells, 0.3 μM): C (Percent Degradation: C ≤ 35)
- Percent Degradation at Indicated Concentration (μM) (H2030 cells, 1 μM): C (Percent Degradation: C ≤ 35)
- Percent Degradation at Indicated Concentration (μM) (H2030 cells, 3 μM): C (Percent Degradation: C ≤ 35)

Structure (SMILES): C=CC(=O)N1CCN(c2nc(O[C@H](C)CN3CCC(OCCOCCOCCOc4ccc5c(c4)CN(C4CCC(=O)NC4=O)C5=O)CC3)nc3c2CCN(c2cc(O)cc4ccccc24)C3)CC1 (stereo partly drawn) [compound 423, 3-(5-(2-(2-(2-((1-((R)-2-((4-(4-acryloylpiperazin-1-yl)-7-(3-hydroxynaphthalen-1-yl)-5,6,7,8-tetrahydropyrido[3,4-d]pyrimidin-2-yl)oxy)propyl)piperidin-4-yl)oxy)ethoxy)ethoxy)ethoxy)-1-oxoisoindolin-2-yl)piperidine-2,6-dione]
- Percent Degradation at Indicated Concentration (μM) (H2030 cells, 0.3 μM): C (Percent Degradation: C ≤ 35)
- Percent Degradation at Indicated Concentration (μM) (H2030 cells, 1 μM): C (Percent Degradation: C ≤ 35)
- Percent Degradation at Indicated Concentration (μM) (H2030 cells, 3 μM): C (Percent Degradation: C ≤ 35)

Structure (SMILES): C=CC(=O)N1CCN(c2nc(NCCC(=O)N(C)CCOc3ccc4c(c3)C(=O)N(C3CCC(=O)NC3=O)C4=O)nc3c(F)c(-c4cc(O)cc5ccccc45)c(Cl)cc23)CC1 (stereo not drawn) [compound 467, 3-((4-(4-acryloylpiperazin-1-yl)-6-chloro-8-fluoro-7-(3-hydroxynaphthalen-1-yl)quinazolin-2-yl)amino)-N-(2-((2-(2,6-dioxopiperidin-3-yl)-1,3-dioxoisoindolin-5-yl)oxy)ethyl)-N-methylpropanamide]
- Percent Degradation at Indicated Concentration (μM) (H2030, 0.3 μM): C (Percent Degradation: C ≤ 35)
- Percent Degradation at Indicated Concentration (μM) (H2030, 1 μM): C (Percent Degradation: C ≤ 35)
- Percent Degradation at Indicated Concentration (μM) (H2030, 3 μM): C (Percent Degradation: C ≤ 35)
- Dmax: ≤ 35%

Structure (SMILES): CN(C)C(=O)CCNc1nc(N2CCN(C(=O)/C=C/CCOc3ccc4c(c3)C(=O)N(C3CCC(=O)NC3=O)C4=O)CC2)c2cc(Cl)c(-c3cc(O)cc4ccccc34)c(F)c2n1 (stereo not drawn) [compound 468]
- Percent Degradation at Indicated Concentration (μM) (H2030, 0.3 μM): C (Percent Degradation: C ≤ 35)
- Percent Degradation at Indicated Concentration (μM) (H2030, 1 μM): C (Percent Degradation: C ≤ 35)
- Percent Degradation at Indicated Concentration (μM) (H2030, 3 μM): C (Percent Degradation: C ≤ 35)
- Dmax: ≤ 35%

Structure (SMILES): C=CC(=O)N1CCN(c2nc(OC3CCN(CCOCCOCCOCCOCC(=O)N[C@H](C(=O)N4C[C@H](O)C[C@H]4C(=O)N[C@@H](C)c4ccc(-c5scnc5C)cc4)C(C)(C)C)CC3)nc3c(F)c(-c4cc(O)cc5ccccc45)c(Cl)cc23)CC1 [compound 474, (2S,4R)-1-((2S)-17-(4-((4-(4-acryloylpiperazin-1-yl)-6-chloro-8-fluoro-7-(3-hydroxynaphthalen-1-yl)quinazolin-2-yl)oxy)piperidin-1-yl)-2-(tert-butyl)-4-oxo-6,9,12,15-tetraoxa-3-azaheptadecanoyl)-4-hydroxy-N-((S)-1-(4-(4-methylthiazol-5-yl)phenyl)ethyl)pyrrolidine-2 carboxamide]
- Percent Degradation at Indicated Concentration (μM) (H2030, 0.3 μM): C (Percent Degradation: C ≤ 35)
- Percent Degradation at Indicated Concentration (μM) (H2030, 1 μM): C (Percent Degradation: C ≤ 35)
- Percent Degradation at Indicated Concentration (μM) (H2030, 3 μM): C (Percent Degradation: C ≤ 35)
- Dmax: ≤ 35%

Structure (SMILES): C=CC(=O)N1CCN(c2nc(Nc3ccc(OCCOCCOCC(=O)N[C@H](C(=O)N4C[C@H](O)C[C@H]4C(=O)N[C@@H](C)c4ccc(-c5scnc5C)cc4)C(C)(C)C)cc3)nc3c(F)c(-c4cc(O)cc5ccccc45)c(Cl)cc23)CC1 [compound 482]
- Percent Degradation at Indicated Concentration (μM) (H2030, 0.3 μM): C (Percent Degradation: C ≤ 35)
- Percent Degradation at Indicated Concentration (μM) (H2030, 1 μM): C (Percent Degradation: C ≤ 35)
- Percent Degradation at Indicated Concentration (μM) (H2030, 3 μM): C (Percent Degradation: C ≤ 35)
- Dmax: ≤ 35%

Structure (SMILES): C=CC(=O)N1CCN(c2nc(Nc3ccc(OCCOCCOCCOCC(=O)N[C@H](C(=O)N4C[C@H](O)C[C@H]4C(=O)N[C@@H](C)c4ccc(-c5scnc5C)cc4)C(C)(C)C)cc3)nc3c(F)c(-c4cc(O)cc5ccccc45)c(Cl)cc23)CC1 [compound 483, (2S,4R)-1-((2S)-14-(4-((4-(4-acryloylpiperazin-1-yl)-6-chloro-8-fluoro-7-(3-hydroxynaphthalen-1-yl)quinazolin-2-yl)amino)phenoxy)-2-(tert-butyl)-4-oxo-6,9,12-trioxa-3-azatetradecanoyl)-4-hydroxy-N-((S)-1-(4-(4-methylthiazol-5-yl)phenyl)ethyl)pyrrolidine-2-carboxamide]
- Percent Degradation at Indicated Concentration (μM) (H2030, 0.3 μM): C (Percent Degradation: C ≤ 35)
- Percent Degradation at Indicated Concentration (μM) (H2030, 1 μM): C (Percent Degradation: C ≤ 35)
- Percent Degradation at Indicated Concentration (μM) (H2030, 3 μM): C (Percent Degradation: C ≤ 35)
- Dmax: ≤ 35%

Structure (SMILES): C=CC(=O)N1CCN(c2nc(Nc3ccc(OCCOCCOCCOCCOCC(=O)N[C@H](C(=O)N4C[C@H](O)C[C@H]4C(=O)N[C@@H](C)c4ccc(-c5scnc5C)cc4)C(C)(C)C)cc3)nc3c(F)c(-c4cc(O)cc5ccccc45)c(Cl)cc23)CC1 [compound 484]
- Percent Degradation at Indicated Concentration (μM) (H2030, 0.3 μM): C (Percent Degradation: C ≤ 35)
- Percent Degradation at Indicated Concentration (μM) (H2030, 1 μM): C (Percent Degradation: C ≤ 35)
- Percent Degradation at Indicated Concentration (μM) (H2030, 3 μM): C (Percent Degradation: C ≤ 35)
- Dmax: ≤ 35%
